From US9951366B2, “Cell-free protein synthesis method and device using a eukaryotic cell lysate in the presence of a caspase inhibitor and the use of a caspase inhibitor for increasing the yield and/or the stability of the synthesized proteins in such a method” (Fraunhofer-Gesellschaft zur Foerderung der angewandten …, priority 2013, dated 2018)
Peptide text beside a SMILES is read from it. * marks the point of attachment. Cbz = O=C(OCc1ccccc1)*; CH2F = FC*

What was measured:
[1] = tested on: cell-free eukaryotic translation system on the basis of a cell extract from Spodoptera frugiperda (Sf21) insect cells; assay: Cell-free expression of membrane proteins (ETB, Hb-EGF, bacteriorhodopsin), protein yield by scintillation measurement; assay type: biochemical
Source text: Here, the influence of the caspase inhibitor on the expression of different membrane proteins in the eukaryotic translation system was investigated more closely. For this purpose, three different model proteins were selected: the endothelin-B receptor (ETB) is a G-protein coupled receptor with seven transmembrane domains which was used cloned into the vector pIX3.0 (Qiagen) for the expression. Furthermore, the type I transmembrane protein heparin-binding EGF-like growth factor (Hb-EGF), N-terminally fused to the melittin signal sequence and C-terminally fused to eYFP, present in the vector pIX3.0, was used for the expression. In addition, the expression of the membrane protein bacteriorhodopsin which also has seven transmembrane domains and was present in the vector pMA (GeneArt) was investigated. The three proteins were each expressed in the batch and dialysis systems without (−) and with (+) the addition of the caspase inhibitor (CI) in the presence of ^14C-leucine for 48 h (27° C.; 600 rpm, Eppendorf Thermomixer Comfort) and analyzed as in example 1. […] The expression of each of the three membrane proteins (ETB, 49.3 kDa; Hb-EGF, 51 kDa; bacteriorhodopsin, 26.9 kDa) was able to be increased in the dialysis system (comparison of the dialysis batches +CI and −CI) with the addition of the caspase inhibitor by approximately 100% (FIG. 2).

[2] = tested on: cell-free eukaryotic translation system on the basis of a cell extract from Spodoptera frugiperda (Sf21) insect cells; assay: Cell-free synthesis of SII-eYFP, protein yield by 14C-leucine incorporation (hot TCA precipitation, scintillation); assay type: biochemical; settings: −V, +CI
Protocol: The influence of the caspase inhibitor on the maximum achievable protein yield was initially investigated on the basis of the expression of the cytosolic protein SII-eYFP. This model protein is the enhanced yellow fluorescent protein (eYFP) which was fused at the N-terminus with an affinity tag (Strep-Tag, SII-Tag) and was present in the vector pIX3.0 (Qiagen). The expression of the model protein was analyzed in the batch system and the dialysis system (50 μl reaction chamber; 1000 μl feeding chamber; cut-off of the membrane=10 kDa) over a period of 48 h. The translation mixtures were each incubated in the batch system and the dialysis system with (+) and without (−) insect cell vesicles (V) and with (+) and without (−) caspase inhibitor (CI) (at 27° C. and 600 rpm). The protein synthesis was carried out in the presence of the radioactively labeled amino acid ^14C-leucine in order to be able to determine the quantity of de novo synthesized target protein by means of hot TCA precipitation and scintillation measurement. The translation reactions were interrupted at particular time points (0 h, 2 h, 4 h, 24 h and 48 h) and analyzed as follows: 5 μl of the mixture was precipitated in hot TCA or ice-cold acetone in each case. A further 5 μl was resuspended in 25 μl PBS. The remaining sample volume was separated by means of a centrifuging step into the supernatant fluid (SN) and the vesicular fraction (VF). Aliquots of 5 μl of these fractions were diluted in 25 μl PBS each. Following the TCA precipitation, the samples were separated from free radioactive amino acids via a vacuum-driven filtration system and underwent a scintillation measurement. After drying, the proteins precipitated in acetone were collected in a reducing sample buffer and separated electrophoretically.

[3] = tested on: Mel-hEGFR-eYFP in Sf21 insect cell lysates; assay: Stability of de novo synthesized Mel-hEGFR-eYFP in batch mode (SDS-PAGE, autoradiography); assay type: biochemical, Spodoptera frugiperda; settings: inhibitor 30 μM
Source text: The positive influence of the caspase inhibitor on the stability of cell-free synthesized proteins is shown here on the basis of the expression of the EGF receptor, the protein being a human, high molecular weight transmembrane protein (Epidermal Growth Factor Receptor) with intrinsic tyrosine kinase activity. The coding sequence of the EGF receptor was fused N-terminally with a melittin signal sequence (Mel) and C-terminally with yellow fluorescent protein (eYFP) and cloned into the vector pIX3.0 (Qiagen). The model protein is denoted below as Mel-hEGFR-eYFP (=163 kDa). The melittin signal sequence enables translocation of the membrane protein into the microsomes of the eukaryotic cell extract and subsequently embedding into the membrane of the microsomes. Mel-hEGFR-eYFP has nine potential N-glycosylation sites and therefore, due to the translocation of the target protein, N-glycosylation of the target protein is also enabled in the cell-free system. […] The translation reaction was carried out in the absence and the presence of a caspase inhibitor (Z-VAD-FMK, Promega, 30 μM) and a protease inhibitor mixture (“Complete Protease Inhibitor Cocktail”, Roche), respectively, and stopped at the indicated incubation times (1.5 h, 5 h and 24 h) by freezing the translation reaction in liquid nitrogen. […]

[4] = tested on: cell-free eukaryotic translation system on the basis of a cell extract from Spodoptera frugiperda (Sf21) insect cells; assay: Cell-free synthesis of SII-eYFP, fluorescence intensity (phosphorimager), Example 1; assay type: biochemical; settings: dialysis system after 48 h, −V, +CI versus −CI, densitometric evaluation
Protocol: The expression of the model protein was analyzed in the batch system and the dialysis system (50 μl reaction chamber; 1000 μl feeding chamber; cut-off of the membrane=10 kDa) over a period of 48 h. The translation mixtures were each incubated in the batch system and the dialysis system with (+) and without (−) insect cell vesicles (V) and with (+) and without (−) caspase inhibitor (CI) (at 27° C. and 600 rpm). The protein synthesis was carried out in the presence of the radioactively labeled amino acid ^14C-leucine in order to be able to determine the quantity of de novo synthesized target protein by means of hot TCA precipitation and scintillation measurement. The translation reactions were interrupted at particular time points (0 h, 2 h, 4 h, 24 h and 48 h) and analyzed as follows: 5 μl of the mixture was precipitated in hot TCA or ice-cold acetone in each case. A further 5 μl was resuspended in 25 μl PBS. The remaining sample volume was separated by means of a centrifuging step into the supernatant fluid (SN) and the vesicular fraction (VF). […] The samples resuspended in PBS were examined in the phosphorimager system (Typhoon TRIO+ imager, GE Healthcare) for their fluorescence intensity. For this purpose, 25 μl samples were pipetted into each cavity of the Ibidi slides and measured, the excitation of the samples taking place at 488 nm and the emission being measured at 526 nm.

[5] = dialysis system 48 h, +CI vs −CI

COC(=O)C[C@H](NC(=O)[C@H](C)NC(=O)[C@@H](NC(=O)OCc1ccccc1)C(C)C)C(=O)CF [Z-VAD-FMK, benzyloxycarbonyl-Val-Ala-Asp-[O-methyl]-fluoromethylketone] (Cbz-Val-Ala-Asp(OMe)-CH2F)
increase of expression of ETB [1, 5]: approximately 100%
increase of expression of Hb-EGF [1, 5]: approximately 100%
increase of expression of bacteriorhodopsin [1, 5]: approximately 100%
increase of maximum achievable yields of membrane protein, average ([1]; dialysis system, addition of caspase inhibitor): approximately 100%
protein yield of SII-eYFP ([2]; batch system after 48 h): 17.3 µg/mL
protein yield of SII-eYFP ([2]; dialysis system after 48 h): 90.8 µg/mL
increase of the maximum protein yield of SII-eYFP ([2]; dialysis system vs batch system, 48 h): approximately 400%
Mel-hEGFR-eYFP integrity in the autoradiograph ([3]; after 24 h incubation time): detectable in an intact form
proteolytic decomposition of Mel-hEGFR-eYFP (autoradiograph) ([3]; compared with no inhibitor, 5 h): reduced signs of a proteolytic decomposition
fluorescence signal of SII-eYFP, fold more intense [4]: 3.7 times
